row,SMILES,glass transition temperature
1,*/N=N/c1ccc([Te]c2ccc(*)cc2)cc1 (repeat unit),300.00 °C
2,*C(=O)Nc1cccc(Oc2cccc(Oc3cccc(NC(=O)c4ccc5c(c4)C(=O)N(c4cccc(Oc6cccc(Oc7cccc(N8C(=O)c9ccc(*)cc9C8=O)c7)c6C#N)c4)C5=O)c3)c2C#N)c1 (repeat unit),214.00 °C
3,*C(=O)c1ccc2c(c1)C(=O)N(c1c(-c3ccccc3)cc(-c3ccc(-c4cc(-c5ccccc5)c(N5C(=O)c6ccc(*)cc6C5=O)c(-c5ccccc5)c4)cc3)cc1-c1ccccc1)C2=O (repeat unit),265.00 °C
4,*CCCN(Cc1ccccc1)C(=O)S* (repeat unit),27.00 °C
5,*Oc1c(F)c(F)c(Sc2c(F)c(F)c(Oc3ccc(C(c4ccc(*)cc4)(C(F)(F)F)C(F)(F)F)cc3)c(F)c2F)c(F)c1F (repeat unit),141.50 °C
6,*Oc1cc(Br)c(C(C)(C)c2c(Br)cc(OC(*)=O)cc2Br)c(Br)c1 (repeat unit),267.00 °C
7,*Oc1cccc(OC2(F)C(*)(F)C(F)(F)C2(F)F)c1 (repeat unit),32.00 °C
8,*Oc1cccc(Oc2ccc3c(=O)n4c5cc(Oc6ccc7c(c6)nc6c8ccc(*)c9cccc(c(=O)n76)c98)ccc5nc4c4cccc2c34)c1 (repeat unit),369.50 °C
9,*Oc1cccc(Oc2cccc(*)n2)c1 (repeat unit),82.00 °C
10,*Oc1cccc2c(OC3(F)C(*)(F)C(F)(F)C3(F)F)cccc12 (repeat unit),138.00 °C
11,*Oc1ccccc1-c1ccccc1Oc1ccc2c(=O)n3c4cc(-c5ccc6c(c5)nc5c7ccc(*)c8cccc(c(=O)n65)c87)ccc4nc3c3cccc1c23 (repeat unit),376.00 °C
12,*SC(C)C(*)=O (repeat unit),12.00 °C
13,*Sc1c(C)cc(*)cc1C (repeat unit),198.00 °C
14,*Sc1ccc(Sc2ccc(Sc3ccc4c(c3)Sc3ccc(*)cc3S4)cc2)cc1 (repeat unit),154.00 °C
15,*Sc1ccc(Sc2ccc(Sc3cccc4c3C(=O)N(N3C(=O)c5cccc(*)c5C3=O)C4=O)cc2)cc1 (repeat unit),266.00 °C
16,*[Si](*)(C)CCCOCC1COC(C)(C)O1 (repeat unit),-48.00 °C

row,SMILES,glass transition temperature
1,*[Si](*)(C)c1ccccc1 (repeat unit),88.00 °C
2,*c1[nH]c(*)c(OC)c1OC (repeat unit),-26.00 °C
3,*c1ccc(C(c2ccc(N3C(=O)c4ccc(Oc5ccc6cc(Oc7ccc8c(c7)C(=O)N(*)C8=O)ccc6c5)cc4C3=O)cc2)(C(F)(F)F)C(F)(F)F)cc1 (repeat unit),218.00 °C
4,*c1ccc(N2C(=O)c3ccc(C(=O)c4ccc5c(c4)C(=O)N(c4ccc(-c6nc7cc(Oc8ccc9nc(-c%10ccccc%10)c(*)nc9c8)ccc7nc6-c6ccccc6)cc4)C5=O)cc3C2=O)cc1 (repeat unit),254.00 °C
5,*c1ccc(Oc2ccc(-c3ccc(Oc4ccc(N5C(=O)c6ccc(Oc7ccc8ccc(Oc9ccc%10c(c9)C(=O)N(*)C%10=O)cc8c7)cc6C5=O)cc4)cc3)cc2)cc1 (repeat unit),231.00 °C
6,*c1ccc(Oc2ccc(-c3nc4cc(Oc5ccc6nc(*)c(-c7ccccc7)nc6c5)ccc4nc3-c3ccccc3)cc2)cc1 (repeat unit),243.00 °C
7,*c1ccc(Oc2ccc(-c3nc4cc(Oc5ccc6nc(-c7ccccc7)c(*)nc6c5)ccc4nc3-c3ccccc3)cc2)cc1 (repeat unit),263.00 °C
8,*c1ccc(Oc2ccc(-c3nc4ccc(Oc5ccc6nc(*)c(-c7ccccc7)nc6c5)cc4nc3-c3ccccc3)cc2)cc1 (repeat unit),437.00 °C
9,*c1ccc(Oc2ccc(C3(c4ccc(Oc5ccc(N6C(=O)c7ccc(Oc8ccccc8Oc8ccc9c(c8)C(=O)N(*)C9=O)cc7C6=O)cc5C(F)(F)F)cc4)c4ccccc4-c4ccccc43)cc2)c(C(F)(F)F)c1 (repeat unit),241.00 °C
10,*c1ccc(Oc2cccc(Oc3ccc(N4C(=O)c5ccc(Oc6cccc(Oc7ccc8c(c7)C(=O)N(*)C8=O)c6)cc5C4=O)cc3)c2)cc1 (repeat unit),188.00 °C
11,*c1ccc(Oc2ccccc2Oc2ccc(N3C(=O)c4ccc(Oc5ccc6c(c5)C(=O)N(*)C6=O)cc4C3=O)cc2C(F)(F)F)c(C(F)(F)F)c1 (repeat unit),223.00 °C
12,*c1ccc(Sc2cc3c(cc2Sc2ccc(N4C(=O)C5C6C=CC(C7C(=O)N(*)C(=O)C67)C5C4=O)cc2)C(=O)N(CCc2ccccc2)C3=O)cc1 (repeat unit),258.00 °C
13,*c1ccc(Sc2cc3c(cc2Sc2ccc(N4C(=O)c5ccc(Oc6ccc7c(c6)C(=O)N(*)C7=O)cc5C4=O)cc2)C(=O)N(CCCCCCCCCCCCCCCC)C3=O)cc1 (repeat unit),156.00 °C
14,*c1ccc(Sc2cc3c(cc2Sc2ccc(N4C(=O)c5ccc(Oc6ccc7c(c6)C(=O)N(*)C7=O)cc5C4=O)cc2)C(=O)N(CCc2ccccc2)C3=O)cc1 (repeat unit),218.00 °C
15,*c1ccc(Sc2ccc(Sc3ccc(N4C(=O)c5ccc(Sc6ccc(Sc7ccc(Sc8ccc9c(c8)C(=O)N(*)C9=O)cc7)cc6)cc5C4=O)cc3)s2)cc1 (repeat unit),185.50 °C
16,*c1cccc(C(c2ccccc2)(c2cccc(N3C(=O)c4ccc(Oc5ccc6c(c5)C(=O)N(*)C6=O)cc4C3=O)c2)C(F)(F)F)c1 (repeat unit),293.00 °C

# Second part, the compound after the results:
row,glass transition temperature,SMILES
1,145.00 °C,*/C=C/c1c(OC(=O)c2ccc(C(=O)Oc3ccc4ccccc4c3/C=C/c3cccc(*)n3)cc2)ccc2ccccc12 (repeat unit)
2,324.00 °C,*C(=O)c1ccc2c(c1)C(=O)N(c1cc(N3C(=O)c4ccc(*)cc4C3=O)c(O)cc1O)C2=O (repeat unit)
3,167.00 °C,*CCOC(=O)c1ccc(/C(C#N)=C(\c2ccc(OC)cc2)N2CCC(*)CC2)cc1 (repeat unit)
4,84.00 °C,*Oc1ccc(Sc2ccc(Sc3ccc(Sc4ccc(*)cc4)cc3)cc2)cc1 (repeat unit)
5,125.00 °C,*Oc1ccc2cc(OC(=O)c3ccc(-c4ccc(C(*)=O)cc4)cc3-c3ccccc3)ccc2c1 (repeat unit)
6,46.00 °C,*Oc1cccc(C(F)(F)C(F)(F)C(F)(F)c2cccc(OC(*)=O)c2)c1 (repeat unit)
7,158.00 °C,*Oc1cccc(OC(=O)c2ccc(OC(=O)c3cccc(C(=O)Oc4ccc(C(*)=O)cc4)c3)cc2)c1 (repeat unit)
8,100.00 °C,*Oc1cccc(Oc2ccc(C(=O)O)c(C(=O)Nc3ccc(Oc4ccc(-c5ccc(Oc6ccc(NC(=O)c7cc(*)ccc7C(=O)O)cc6)cc5)cc4)cc3)c2)c1 (repeat unit)
9,131.00 °C,*Oc1cccc(Oc2ccc(C(=O)Oc3cccc(OC(=O)c4ccc(*)cc4)c3)cc2)c1 (repeat unit)
10,171.00 °C,*Oc1cccc2c(OC(=O)c3ccc(Oc4ccc(C(*)=O)cc4)cc3)cccc12 (repeat unit)
11,98.00 °C,*SSc1ccc(/N=C/Nc2ccc(*)cc2)cc1 (repeat unit)
12,235.00 °C,*c1cc(N2C(=O)c3ccc(Oc4ccc5ccc(Oc6ccc7c(c6)C(=O)N(*)C7=O)cc5c4)cc3C2=O)cc(C(F)(F)F)c1 (repeat unit)
13,326.00 °C,*c1ccc(-c2nc3cc(Oc4ccc5nc(*)c(-c6ccccc6)nc5c4)ccc3nc2-c2ccccc2)cc1 (repeat unit)
14,304.00 °C,*c1ccc(-c2nc3ccc(Oc4ccc5nc(*)c(-c6ccccc6)nc5c4)cc3nc2-c2ccccc2)cc1 (repeat unit)
15,160.00 °C,*c1ccc(C(=O)Oc2ccc3ccc(OC(=O)c4ccc(N5C(=O)CC(SCCOCCSC6CC(=O)N(*)C6=O)C5=O)cc4)cc3c2)cc1 (repeat unit)
16,269.00 °C,*c1ccc(C(c2ccccc2)c2ccc(N3C(=O)c4ccc(Oc5ccc6c(c5)C(=O)N(*)C6=O)cc4C3=O)cc2)cc1 (repeat unit)
17,271.00 °C,*c1ccc(Cc2ccc(N3C(=O)c4ccc(Oc5ccc6c(c5)C(=O)N(*)C6=O)cc4C3=O)cc2)cc1 (repeat unit)
18,275.50 °C,*c1ccc(Oc2cc3ccccc3cc2Oc2ccc(N3C(=O)c4ccc(Oc5ccc6c(c5)C(=O)N(*)C6=O)cc4C3=O)cc2)cc1 (repeat unit)
19,209.00 °C,*c1ccc(Oc2ccc(N3C(=O)c4ccc(Oc5cccc(Oc6ccc7c(c6)C(=O)N(*)C7=O)c5)cc4C3=O)cc2)cc1 (repeat unit)
20,212.00 °C,*c1ccc(Oc2ccc(N3C(=O)c4ccc(Oc5ccccc5Oc5ccc6c(c5)C(=O)N(*)C6=O)cc4C3=O)cc2)cc1 (repeat unit)
21,264.00 °C,*c1ccc(Oc2ccccc2N2C(=O)c3ccc(Oc4ccc5c(c4)C(=O)N(*)C5=O)cc3C2=O)cc1 (repeat unit)
22,310.00 °C,*c1ccc(Sc2cc3c(cc2Sc2ccc(N4C(=O)C5C6C=CC(C7C(=O)N(*)C(=O)C67)C5C4=O)cc2)C(=O)N(CCN(C)C)C3=O)cc1 (repeat unit)
23,151.00 °C,*c1ccc2cc(OC(=O)c3cccc(C(=O)Oc4ccc5cc(-c6nc7ccccc7nc6*)ccc5c4)c3)ccc2c1 (repeat unit)
24,270.00 °C,*c1cccc(-c2nc3ccc(Oc4ccc5nc(*)c(-c6ccccc6)nc5c4)cc3nc2-c2ccccc2)c1 (repeat unit)
25,254.00 °C,*c1cccc(N2C(=O)c3ccc(Oc4ccc5ccc(Oc6ccc7c(c6)C(=O)N(*)C7=O)cc5c4)cc3C2=O)c1 (repeat unit)
26,224.00 °C,*c1cccc(N2C(=O)c3ccc(Oc4cccc(Oc5ccc6c(c5)C(=O)N(*)C6=O)c4)cc3C2=O)c1 (repeat unit)
27,260.00 °C,*c1cccc(N2C(=O)c3ccc(Oc4cccc5c(Oc6ccc7c(c6)C(=O)N(*)C7=O)cccc45)cc3C2=O)c1 (repeat unit)
28,241.00 °C,*c1cccc(N2C(=O)c3cccc(Oc4cccc(Oc5cccc6c5C(=O)N(*)C6=O)c4)c3C2=O)c1 (repeat unit)
29,204.00 °C,*c1cccc(Oc2ccc(Oc3cccc(N4C(=O)c5ccc(Oc6ccc7c(c6)C(=O)N(*)C7=O)cc5C4=O)c3)cc2)c1 (repeat unit)

# — the PolyMetriX glass transition set
